Data: ChEMBL document CHEMBL5370567 (Bioorg Med Chem, 2023)
pEC50: −log10 of the molar value.

biological target: T1, G-protein coupled bile acid receptor 1 (Homo sapiens, UniProt Q8TDU6); test: Positive allosteric modulator activity at human TGR5 expressed in HEK293T cells assessed as increase in cAMP accumulation incubated for 1 hr at 37 degC and further incubated for 1 hr at room temperature by glosensor cAMP accumulation assay; type: functional, cell-based
T1 sequence (Q8TDU6 whole entry): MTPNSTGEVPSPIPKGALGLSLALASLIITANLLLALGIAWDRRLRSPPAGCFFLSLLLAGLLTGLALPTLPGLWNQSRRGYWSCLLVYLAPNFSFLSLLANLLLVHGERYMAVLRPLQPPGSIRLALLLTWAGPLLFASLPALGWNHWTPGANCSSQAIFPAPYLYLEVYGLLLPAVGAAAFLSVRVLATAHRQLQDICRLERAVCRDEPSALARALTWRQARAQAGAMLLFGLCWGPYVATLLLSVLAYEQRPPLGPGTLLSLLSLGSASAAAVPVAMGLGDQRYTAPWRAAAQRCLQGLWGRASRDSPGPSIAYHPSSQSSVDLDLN

| Compound | pEC50 |
| --- | --- |
| CO[C@@H]1C[C@@H]2C[C@H](O)CC[C@]2(C)[C@H]2CC(=O)[C@]3(C)[C@@H]([C@H](C)CCC(=O)OCc4ccccc4)CC[C@H]3[C@H]12 | 4.12 |
| CO[C@@H]1C[C@@H]2C[C@H](O)CC[C@]2(C)[C@H]2C[C@H](O)[C@]3(C)[C@@H]([C@H](C)CCC(=O)OCC4CCCC4)CC[C@H]3[C@H]12 | 4.59 |
| CO[C@@H]1C[C@@H]2C[C@H](O)CC[C@]2(C)[C@H]2C[C@H](O)[C@]3(C)[C@@H]([C@H](C)CCC(=O)Oc4ccc5ccccc5c4)CC[C@H]3[C@H]12 | < 4.00 |
| CO[C@@H]1C[C@@H]2C[C@H](O)CC[C@]2(C)[C@H]2C[C@H](O)[C@]3(C)[C@@H]([C@H](C)CCC(=O)OC4CCCC4)CC[C@H]3[C@H]12 | 4.66 |
| CO[C@@H]1C[C@@H]2C[C@H](O)CC[C@]2(C)[C@H]2CC(=O)[C@]3(C)[C@@H]([C@H](C)CCC(=O)OC(C)C)CC[C@H]3[C@H]12 | 4.92 |
| COC(=O)CC[C@@H](C)[C@H]1CC[C@H]2[C@@H]3[C@H](OC)C[C@@H]4C[C@H](O)CC[C@]4(C)[C@H]3C[C@H](O)[C@]12C | 5.10 |
| CO[C@@H]1C[C@@H]2C[C@H](O)CC[C@]2(C)[C@H]2C[C@H](O)[C@]3(C)[C@@H]([C@H](C)CCC(=O)Oc4ccccc4)CC[C@H]3[C@H]12 | 4.73 |
| CO[C@@H]1C[C@@H]2C[C@H](O)CC[C@]2(C)[C@H]2CC(=O)[C@]3(C)[C@@H]([C@H](C)CCC(=O)OCC4CCCC4)CC[C@H]3[C@H]12 | 4.21 |
| CO[C@@H]1C[C@@H]2C[C@H](O)CC[C@]2(C)[C@H]2CC(=O)[C@]3(C)[C@@H]([C@H](C)CCC(=O)Oc4ccccc4)CC[C@H]3[C@H]12 | 5.26 |
| CO[C@@H]1C[C@@H]2C[C@H](O)CC[C@]2(C)[C@H]2CC(=O)[C@]3(C)[C@@H]([C@H](C)CCC(=O)OC4CC4)CC[C@H]3[C@H]12 | 5.20 |
| CCOC(=O)CC[C@@H](C)[C@H]1CC[C@H]2[C@@H]3[C@H](OC)C[C@@H]4C[C@H](O)CC[C@]4(C)[C@H]3C[C@H](O)[C@]12C | 4.70 |
| CO[C@@H]1C[C@@H]2C[C@H](O)CC[C@]2(C)[C@H]2C[C@H](O)[C@]3(C)[C@@H]([C@H](C)CCC(=O)OCc4ccccc4)CC[C@H]3[C@H]12 | 4.03 |
| CO[C@@H]1C[C@@H]2C[C@H](O)CC[C@]2(C)[C@H]2C[C@H](O)[C@]3(C)[C@@H]([C@H](C)CCC(=O)OC4CC4)CC[C@H]3[C@H]12 | 5.05 |
| CCOC(=O)CC[C@@H](C)[C@H]1CC[C@H]2[C@@H]3[C@H](OC)C[C@@H]4C[C@H](O)CC[C@]4(C)[C@H]3CC(=O)[C@]12C | 4.50 |
| CO[C@@H]1C[C@@H]2C[C@H](O)CC[C@]2(C)[C@H]2CC(=O)[C@]3(C)[C@@H]([C@H](C)CCC(=O)Oc4ccc5ccccc5c4)CC[C@H]3[C@H]12 | < 4.00 |
| CO[C@@H]1C[C@@H]2C[C@H](O)CC[C@]2(C)[C@H]2C[C@H](O)[C@]3(C)[C@@H]([C@H](C)CCC(=O)OCC4CC4)CC[C@H]3[C@H]12 | 4.85 |
| CO[C@@H]1C[C@@H]2C[C@H](O)CC[C@]2(C)[C@H]2C[C@H](O)[C@]3(C)[C@@H]([C@H](C)CCC(=O)Oc4cccc5ccccc45)CC[C@H]3[C@H]12 | 4.31 |
| CO[C@@H]1C[C@@H]2C[C@H](O)CC[C@]2(C)[C@H]2CC(=O)[C@]3(C)[C@@H]([C@H](C)CCC(=O)OCC4CC4)CC[C@H]3[C@H]12 | 5.02 |
| CO[C@@H]1C[C@@H]2C[C@H](O)CC[C@]2(C)[C@H]2C[C@H](O)[C@]3(C)[C@@H]([C@H](C)CCC(=O)OC(C)C)CC[C@H]3[C@H]12 | 5.01 |
| CO[C@@H]1C[C@@H]2C[C@H](O)CC[C@]2(C)[C@H]2CC(=O)[C@]3(C)[C@@H]([C@H](C)CCC(=O)Oc4cccc5ccccc45)CC[C@H]3[C@H]12 | 4.42 |
| CO[C@@H]1C[C@@H]2C[C@H](O)CC[C@]2(C)[C@H]2CC(=O)[C@]3(C)[C@@H]([C@H](C)CCC(=O)OC4CCCC4)CC[C@H]3[C@H]12 | 4.64 |
| COC(=O)CC[C@@H](C)[C@H]1CC[C@H]2[C@@H]3[C@H](OC)C[C@@H]4C[C@H](O)CC[C@]4(C)[C@H]3CC(=O)[C@]12C | 5.28 |
